Results: paper PMC10222987 (Viruses, 2023)
Read-outs that look alike come from different tables or passages of the source.

Columns and labels:
rgH1N1.NA/H275Y [1] = system: rgH1N1.NA/H275Y; design: species or system BALB/c mice; conditions: mouse, in vivo
rgH3N2.WT = conditions: hamster, in vivo
rgH1N1.WT [2] = conditions: mouse, in vivo
rgH3N2.PA/I38T = system: rgH3N2.PA/I38T; design: species or system Syrian hamsters; conditions: hamster, in vivo
[3] = system: H1N1 (rgA/WSN/33) NA/H275Y; conditions: cited from earlier work
rgH1N1.NA/H275Y [4] = system: rgH1N1.NA/H275Y; design: species or system BALB/c mice; conditions: mouse, in vivo; remark: listed apart in the source
[5] = system: H1N1 (rgA/WSN/33) PA/I38T; conditions: cited from earlier work
rgH1N1.PA/I38T [6] = system: rgH1N1.PA/I38T; design: species or system BALB/c mice; conditions: mouse, in vivo
[7] = system: H3N2 (rgA/Victoria/3/75) PA/I38T; conditions: cited from earlier work
H1N1pdm09.PA/I38T = system: H1N1pdm09.PA/I38T; design: species or system BALB/c mice; conditions: mouse, in vivo
[8] = system: H1N1pdm09 (A/Osaka/129/2009) PA/I38T; format: cell-based, influenza A virus
rgH1N1.WT [9] = conditions: mouse, in vivo; remark: listed apart in the source
rgH1N1.PA/I38T [10] = system: rgH1N1.PA/I38T; design: species or system BALB/c mice; conditions: mouse, in vivo; remark: listed apart in the source
[11] = system: H1N1 (rgA/WSN/33) NA/H275Y; conditions: cited from earlier work; remark: listed apart in the source
[12] = system: H1N1 (rgA/WSN/33) PA/I38T; conditions: cited from earlier work; remark: listed apart in the source
[13] = system: H3N2 (rgA/Victoria/3/75) PA/I38T; conditions: cited from earlier work; remark: listed apart in the source
rgH1N1.PA/I38T [14] = system: rgH1N1.PA/I38T; design: species or system BALB/c mice; conditions: mouse, in vivo; remark: listed apart in the source

SMILES: O=C1c2c(O)c(=O)ccn2N([C@@H]2c3ccccc3SCc3c2ccc(F)c3F)[C@@H]2COCCN12 [baloxavir acid]
- Inhibitory effect on loss of body weight vs oseltamivir phosphate (rgH1N1.NA/H275Y [1]): significantly greater with baloxavir acid than with oseltamivir phosphate
- Inhibitory effect on loss of body weight vs vehicle (rgH1N1.NA/H275Y [1]): significant inhibitory effect on loss of body weight
- Reduction in virus titers vs vehicle and oseltamivir phosphate (rgH3N2.WT): significantly higher reduction in virus titers
- Inhibitory effect on loss of body weight vs vehicle (rgH1N1.WT [2]): significant inhibitory effect on loss of body weight
- Reduction in virus titers vs vehicle and oseltamivir phosphate (rgH3N2.PA/I38T): statistically significant reduction in virus titers
- EC50 [3]: 0.32 nM
- FC (fold change of EC50 relative to WT) [3]: 0.77 fold
- Antiviral activity vs oseltamivir phosphate (rgH1N1.NA/H275Y [4]): significantly higher antiviral activity compared with oseltamivir phosphate
- Lung virus titer (rgH1N1.NA/H275Y [4]): < 1.5 log10 TCID50/mL
- EC50 [5]: 11.4 nM
- FC (fold change of EC50 relative to WT) [5]: 27.24 fold
- Inhibitory effect on loss of body weight vs vehicle (rgH1N1.PA/I38T [6]): significant inhibitory effect on loss of body weight
- EC50 [7]: 63.8 nM
- FC (fold change of EC50 relative to WT) [7]: 56.59 fold
- Lung virus titers vs vehicle, time course (H1N1pdm09.PA/I38T): significantly lower with baloxavir than the vehicle-treated mice
- Reduction in lung virus titers vs oseltamivir phosphate (5 mg/kg, twice daily) (H1N1pdm09.PA/I38T): statistically similar
- Viral rebound (increase in virus titers after dosing) (H1N1pdm09.PA/I38T): did not observe any increase in virus titers
- Lung virus titer (H1N1pdm09.PA/I38T; sc, 30 mg/kg): 1.87 log10TCID50/mL
- EC50 [8]: 15.7 nM
- FC (fold change of EC50 relative to WT) [8]: 25.74 fold
- Antiviral activity vs oseltamivir phosphate (5 mg/kg, twice daily) (rgH1N1.WT [9]): significantly greater than oseltamivir phosphate
- Lung virus titer (rgH1N1.WT [9]): < 1.5 log10 TCID50/mL
- Lung virus titers vs vehicle (rgH1N1.WT [9]): significantly lower than vehicle-treated groups at all doses
- Antiviral effect vs oseltamivir phosphate (5 mg/kg, twice daily) (rgH1N1.PA/I38T [10]): statistically similar
- Lung virus titers vs vehicle (rgH1N1.PA/I38T [10]): significantly lower than vehicle
- Reduction of virus titers compared with vehicle (rgH1N1.PA/I38T [10]): 1.88 log10 TCID50/mL
- Viral rebound (increase in virus titers after dosing) (rgH1N1.PA/I38T [10]): did not observe any increase in virus titers
- Lung virus titers vs vehicle (rgH1N1.PA/I38T [10]; sc, 10 mg/kg): significant decrease in virus titers

SMILES: CCC(CC)O[C@@H]1C=C(C(=O)O)C[C@H](N)[C@H]1NC(C)=O [oseltamivir acid]
- FC (fold change of IC50 relative to WT) [11]: 226.12 fold
- IC50 [11]: 182 nM
- FC (fold change of IC50 relative to WT) [12]: 1.00 fold
- IC50 [12]: 0.8 nM
- FC (fold change of IC50 relative to WT) [13]: 1.21 fold
- IC50 [13]: 0.16 nM

SMILES: CCOC(=O)C1=C[C@@H](OC(CC)CC)[C@H](NC(C)=O)[C@@H](N)C1 [oseltamivir phosphate]
- Degree of virus titer reduction (rgH1N1.NA/H275Y [4]): 0.38 log10TCID50/mL
- Lung virus titers vs vehicle (rgH1N1.NA/H275Y [4]): statistically lower compared with vehicle
- Mean virus titer (rgH1N1.PA/I38T [14]): 3.17 log10 TCID50/mL
- Lung virus titers vs vehicle (H1N1pdm09.PA/I38T): statistically lower compared with vehicle
- Degree of virus titer reduction (rgH1N1.WT [9]): 1.15 log10TCID50/mL
- Lung virus titers vs vehicle (rgH1N1.WT [9]): statistically lower compared with vehicle
- Lung virus titers vs vehicle (rgH1N1.PA/I38T [10]): statistically lower compared with vehicle
